{"source": "patent US20220281848A1", "about": "“PYRAZOLE-SUBSTITUTED PYRROLIDINONES AS HERBICIDES” (FMC Corporation, priority 2019, published 2022)", "key": {"[1]": {"test_system": "velvetleaf (Abutilon theophrasti, ABUTH)", "assay": "Test A post-emergence, velvetleaf", "assay_type": "in vivo", "details": "after 13 d", "in_short": "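Visual damage at 13 d after treatment, rated from 0 (no damage) to 100 (total damage). Eight-day-old pot-grown plants had been sprayed with 15.625, 62.5 or 250 g/ha of compound in aqueous acetone (50:50) containing 0.5% Tween 20.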"}, "plants": {"test_system": "plants", "assay": "Test D post-emergence, other plants of Tables D2 and D4", "assay_type": "in vivo", "details": "for damage to plant (100=total damage to plant; 0=no damage to plant), ABUTH / damage to plant (100=total damage to plant; 0=no damage to plant), AMARE: post-emergence", "in_short": "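Damage was rated visually from 0 (none) to 100 (total), at 20 DAA for pre-emergence and 15 d for post-emergence. Plants grew from safener-treated seed in a glasshouse at 24/18° C. or 20/16° C. day/night, 65% humidity, watered twice daily.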"}, "[2]": {"details": "\"Cereals\" Postemergent, Rates 130, evaluated after 15 d"}, "[3]": {"details": "\"Cereals\" Postemergent, Rates 250, evaluated after 15 d"}, "[4]": {"details": "\"Cereals\" Postemergent, Rates 500, evaluated after 15 d"}}}
{"smiles": "CN1CC(c2cc(C(F)(F)F)n(C)n2)C(C(=O)Nc2ccc(F)nc2F)C1=O", "note": "(racemic) [Compound 22]", "values": [{"measurement": "damage to plant (100=total damage; 0=no damage) ABUTH", "setting": "[1]; Post-Emergence at 15.625 g/ha", "value": 0}, {"measurement": "damage to plant (100=total damage; 0=no damage) ABUTH", "setting": "[1]; Post-Emergence at 62.5 g/ha", "value": 0}, {"measurement": "damage to plant (100=total damage; 0=no damage) ABUTH", "setting": "[1]; Post-Emergence at 250 g/ha", "value": 0}, {"measurement": "ALOMY damage rating (100=total damage to plant; 0=no damage to plant)", "setting": "plants; [2]", "value": 0}, {"measurement": "ALOMY damage rating (100=total damage to plant; 0=no damage to plant)", "setting": "plants; [3]", "value": 0}, {"measurement": "ALOMY damage rating (100=total damage to plant; 0=no damage to plant)", "setting": "plants; [4]", "value": 10}, {"measurement": "AVEFA damage rating (100=total damage to plant; 0=no damage to plant)", "setting": "plants; [2]", "value": 0}, {"measurement": "AVEFA damage rating (100=total damage to plant; 0=no damage to plant)", "setting": "plants; [3]", "value": 0}, {"measurement": "AVEFA damage rating (100=total damage to plant; 0=no damage to plant)", "setting": "plants; [4]", "value": 10}, {"measurement": "BEAVA damage rating (100=total damage to plant; 0=no damage to plant)", "setting": "plants; [2]", "value": 0}, {"measurement": "BEAVA damage rating (100=total damage to plant; 0=no damage to plant)", "setting": "plants; [3]", "value": 0}, {"measurement": "BEAVA damage rating (100=total damage to plant; 0=no damage to plant)", "setting": "plants; [4]", "value": 10}, {"measurement": "BROTE damage rating (100=total damage to plant; 0=no damage to plant)", "setting": "plants; [2]", "value": 0}, {"measurement": "BROTE damage rating (100=total damage to plant; 0=no damage to plant)", "setting": "plants; [3]", "value": 0}, {"measurement": "BROTE damage rating (100=total damage to plant; 0=no damage to plant)", "setting": "plants; [4]", "value": 0}, {"measurement": "BRSNN damage rating (100=total damage to plant; 0=no damage to plant)", "setting": "plants; [2]", "value": 10}, {"measurement": "BRSNN damage rating (100=total damage to plant; 0=no damage to plant)", "setting": "plants; [3]", "value": 10}, {"measurement": "BRSNN damage rating (100=total damage to plant; 0=no damage to plant)", "setting": "plants; [4]", "value": 10}, {"measurement": "CHEAL damage rating (100=total damage to plant; 0=no damage to plant)", "setting": "plants; [2]", "value": 0}, {"measurement": "CHEAL damage rating (100=total damage to plant; 0=no damage to plant)", "setting": "plants; [3]", "value": 20}, {"measurement": "CHEAL damage rating (100=total damage to plant; 0=no damage to plant)", "setting": "plants; [4]", "value": 30}, {"measurement": "GALAP damage rating (100=total damage to plant; 0=no damage to plant)", "setting": "plants; [2]", "value": 0}, {"measurement": "GALAP damage rating (100=total damage to plant; 0=no damage to plant)", "setting": "plants; [3]", "value": 40}, {"measurement": "GALAP damage rating (100=total damage to plant; 0=no damage to plant)", "setting": "plants; [4]", "value": 10}, {"measurement": "HORVW damage rating (100=total damage to plant; 0=no damage to plant)", "setting": "plants; [2]", "value": 0}, {"measurement": "HORVW damage rating (100=total damage to plant; 0=no damage to plant)", "setting": "plants; [3]", "value": 10}, {"measurement": "HORVW damage rating (100=total damage to plant; 0=no damage to plant)", "setting": "plants; [4]", "value": 20}, {"measurement": "KCHSC damage rating (100=total damage to plant; 0=no damage to plant)", "setting": "plants; [2]", "value": 0}, {"measurement": "KCHSC damage rating (100=total damage to plant; 0=no damage to plant)", "setting": "plants; [3]", "value": 0}, {"measurement": "KCHSC damage rating (100=total damage to plant; 0=no damage to plant)", "setting": "plants; [4]", "value": 0}, {"measurement": "LOLPE damage rating (100=total damage to plant; 0=no damage to plant)", "setting": "plants; [2]", "value": 0}, {"measurement": "LOLPE damage rating (100=total damage to plant; 0=no damage to plant)", "setting": "plants; [3]", "value": 0}, {"measurement": "LOLPE damage rating (100=total damage to plant; 0=no damage to plant)", "setting": "plants; [4]", "value": 0}, {"measurement": "POAAN damage rating (100=total damage to plant; 0=no damage to plant)", "setting": "plants; [2]", "value": 0}, {"measurement": "POAAN damage rating (100=total damage to plant; 0=no damage to plant)", "setting": "plants; [3]", "value": 0}, {"measurement": "POAAN damage rating (100=total damage to plant; 0=no damage to plant)", "setting": "plants; [4]", "value": 0}, {"measurement": "POLCO damage rating (100=total damage to plant; 0=no damage to plant)", "setting": "plants; [2]", "value": 0}, {"measurement": "POLCO damage rating (100=total damage to plant; 0=no damage to plant)", "setting": "plants; [3]", "value": 0}, {"measurement": "POLCO damage rating (100=total damage to plant; 0=no damage to plant)", "setting": "plants; [4]", "value": 10}, {"measurement": "SINAR damage rating (100=total damage to plant; 0=no damage to plant)", "setting": "plants; SINAR, \"Cereals\" Postemergent, Rates 500, evaluated after 15 d", "value": 20}, {"measurement": "STEME damage rating (100=total damage to plant; 0=no damage to plant)", "setting": "plants; [2]", "value": 0}, {"measurement": "STEME damage rating (100=total damage to plant; 0=no damage to plant)", "setting": "plants; [3]", "value": 0}, {"measurement": "STEME damage rating (100=total damage to plant; 0=no damage to plant)", "setting": "plants; [4]", "value": 30}, {"measurement": "VERPE damage rating (100=total damage to plant; 0=no damage to plant)", "setting": "plants; [2]", "value": 0}, {"measurement": "VERPE damage rating (100=total damage to plant; 0=no damage to plant)", "setting": "plants; [3]", "value": 50}, {"measurement": "VERPE damage rating (100=total damage to plant; 0=no damage to plant)", "setting": "plants; [4]", "value": 60}, {"measurement": "damage to plant (100=total damage to plant; 0=no damage to plant), ABUTH", "setting": "plants; rate 130, evaluated after 15 d", "value": 0}, {"measurement": "damage to plant (100=total damage to plant; 0=no damage to plant), ABUTH", "setting": "plants; rate 250, evaluated after 15 d", "value": 10}, {"measurement": "damage to plant (100=total damage to plant; 0=no damage to plant), ABUTH", "setting": "plants; rate 500, evaluated after 15 d", "value": 30}, {"measurement": "damage to plant (100=total damage to plant; 0=no damage to plant), AMARE", "setting": "plants; rate 130, evaluated after 15 d", "value": 0}, {"measurement": "damage to plant (100=total damage to plant; 0=no damage to plant), AMARE", "setting": "plants; rate 250, evaluated after 15 d", "value": 0}]}
